{
  "source": "patent US8710252B2",
  "about": "“Hepodxilin analog enantiomers” (priority 2006, dated 2014)",
  "target": "T1, Ga14-DBD-PPAR gamma-LBD fusion protein (Homo sapiens, UniProt P37231)",
  "T1 construct": "expressed in transfected cells; host or cells: mouse embryonic fibroblasts (MEFs) or ME3 cells",
  "T1 sequence (P37231 238-503 limits assumed)": "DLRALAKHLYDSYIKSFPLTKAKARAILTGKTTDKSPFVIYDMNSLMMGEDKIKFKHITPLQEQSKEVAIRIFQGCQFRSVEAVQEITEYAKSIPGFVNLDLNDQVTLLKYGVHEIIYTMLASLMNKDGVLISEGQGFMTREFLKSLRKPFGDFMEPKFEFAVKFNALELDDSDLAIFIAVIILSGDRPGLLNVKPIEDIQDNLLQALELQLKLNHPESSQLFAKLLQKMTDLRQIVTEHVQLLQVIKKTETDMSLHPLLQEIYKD",
  "experiment": "PPAR gamma transactivation assay (Gal4-PPAR gamma LBD / UASx4-TK-luc reporter)",
  "assay_type": "cell-based",
  "source_text": "The UASx4-TK-luc reporter construct (where UAS refers to “upstream activator sequence”) contains four Ga14-responsive elements. The plasmid Ga14-PPAR gammaLBD encodes a Ga14-DBD-PPAR gamma-LBD fusion protein (i.e. the DNA-binding domain, DBD, of Ga14 fused to the ligand-binding domain, LBD, of PPAR gamma) capable of transactivating the UASx4-TK-luc reporter plasmid by binding to the UAS. The CMV-beta-galactosidase plasmid (where CMV is cytomegalovirus) was used for normalization of experimental values.\nThe cells were replated, typically in 24 well plates, so that at the time of transfection the cells were 50-70% confluent.\nBriefly, per well in a 24 well plate, UASx4TKIuc (0.2 microg) Ga14-PPAR gammaLBD (or pM-hPPAR gamma-LBD; 0.1 microg) and CMV-beta-galactosidase (0.05 microg) in 30 μL DMEM (free of serum and antibiotics) was mixed with 30 microL DMEM (free of serum and antibiotics) containing 1 microL metafectenein. The mixture was incubated at room temperature for 20 min to allow formation of nucleic acid-lipid complexes and then approximately 60 micros was added to each well containing the 50-70% confluent cells. […] Cells were harvested after 12-24 hours and luciferase and beta-galactosidase activities were measured according to standard protocols.\nEach experiment was carried out with triplicate samples with 0.1, 1 or 10 microM racemate or purified enantiomer.",
  "note": "“Also recorded” adds a separate entry of the source.",
  "data": [
    {"smiles": "CCCCC/C=C\\CC1CC1/C=C/C(O)C/C=C\\CCCC(=O)OC", "note": "(stereo not drawn) [Compound E, 8R-hydroxy-11S,12S-cyclopropyl-eicosa-5Z,9E,14Z-trienoic acid methyl ester]", "values": [
      {"measurement": "PPAR Activation as % of positive control (Avandia)", "setting": "Experiment 1, 0.1 microM", "result": "5 +/− 1 % of positive control (Avandia)"},
      {"measurement": "PPAR Activation as % of positive control (Avandia)", "setting": "Experiment 1, 1 microM", "result": "11 +/− 1 % of positive control (Avandia)"},
      {"measurement": "PPAR Activation as % of positive control (Avandia)", "setting": "Experiment 1, 10 microM", "result": "55 +/− 8 % of positive control (Avandia)"},
      {"measurement": "PPAR Activation as % of positive control (Avandia)", "setting": "Experiment 2, 0.1 microM", "result": "4 +/− 1 % of positive control (Avandia)"},
      {"measurement": "PPAR Activation as % of positive control (Avandia)", "setting": "Experiment 2, 1 microM", "result": "4 +/− 1 % of positive control (Avandia)"},
      {"measurement": "PPAR Activation as % of positive control (Avandia)", "setting": "Experiment 2, 10 microM", "result": "14 +/− 2 % of positive control (Avandia)"},
      {"measurement": "PPAR Activation as % of positive control (Avandia)", "setting": "Experiment 3, 0.1 microM", "result": "7 +/− 3 % of positive control (Avandia)"},
      {"measurement": "PPAR Activation as % of positive control (Avandia)", "setting": "Experiment 3, 1 microM", "result": "11 +/− 2 % of positive control (Avandia)"},
      {"measurement": "PPAR Activation as % of positive control (Avandia)", "setting": "Experiment 3, 10 microM", "result": "27 +/− 7 % of positive control (Avandia)"}
    ]},
    {"smiles": "CCCCC/C=C\\C[C@@H]1C[C@H]1/C=C/[C@@H](O)C/C=C\\CCCC(=O)OC", "note": "[Compound F, 8S-hydroxy-11R,12R-cyclopropyl-eicosa-5Z,9E,14Z-trienoic acid methyl ester]", "values": [
      {"measurement": "PPAR gamma transactivation, result in words", "result": "significantly more activity than Compound E or the racemic mixture of PBT-1; also recorded: significantly better PPAR gamma transactivation activity; also recorded: higher fold PPAR gamma transactivation than compound E or the PBT-1 racemic mixture"},
      {"measurement": "PPAR Activation as % of positive control (Avandia)", "setting": "Experiment 1, 0.1 microM", "result": "7 +/− 1 % of positive control (Avandia)"},
      {"measurement": "PPAR Activation as % of positive control (Avandia)", "setting": "Experiment 1, 1 microM", "result": "12 +/− 7 % of positive control (Avandia)"},
      {"measurement": "PPAR Activation as % of positive control (Avandia)", "setting": "Experiment 1, 10 microM", "result": "92 +/− 7 % of positive control (Avandia)"},
      {"measurement": "PPAR Activation as % of positive control (Avandia)", "setting": "Experiment 2, 0.1 microM", "result": "5 +/− 1 % of positive control (Avandia)"},
      {"measurement": "PPAR Activation as % of positive control (Avandia)", "setting": "Experiment 2, 1 microM", "result": "5 +/− 5 % of positive control (Avandia)"},
      {"measurement": "PPAR Activation as % of positive control (Avandia)", "setting": "Experiment 2, 10 microM", "result": "69 +/− 12 % of positive control (Avandia)"},
      {"measurement": "PPAR Activation as % of positive control (Avandia)", "setting": "Experiment 3, 0.1 microM", "result": "8 +/− 2 % of positive control (Avandia)"},
      {"measurement": "PPAR Activation as % of positive control (Avandia)", "setting": "Experiment 3, 1 microM", "result": "18 +/− 5 % of positive control (Avandia)"},
      {"measurement": "PPAR Activation as % of positive control (Avandia)", "setting": "Experiment 3, 10 microM", "result": "78 +/− 34 % of positive control (Avandia)"}
    ]},
    {"smiles": "CCCCC/C=C\\CC1CC1/C=C/C(O)C/C=C\\CCCC(=O)OC", "note": "(stereo not shown) [PBT-1, 8-hydroxy-11,12-cyclopropyl-eicosa-5Z,9E,14Z-trienoic acid methyl ester, reference compound]", "values": [
      {"measurement": "PPAR Activation as % of positive control (Avandia)", "setting": "10 microM racemate, Table 3", "result": "21 +/− 2 % of positive control (Avandia)"},
      {"measurement": "PPAR Activation as % of positive control (Avandia)", "setting": "Experiment 1, 0.1 microM", "result": "17 +/− 2 % of positive control (Avandia)"},
      {"measurement": "PPAR Activation as % of positive control (Avandia)", "setting": "Experiment 1, 1 microM", "result": "57 +/− 6 % of positive control (Avandia)"},
      {"measurement": "PPAR Activation as % of positive control (Avandia)", "setting": "Experiment 2, 0.1 microM", "result": "7 +/− 1 % of positive control (Avandia)"},
      {"measurement": "PPAR Activation as % of positive control (Avandia)", "setting": "Experiment 2, 1 microM", "result": "35 +/− 5 % of positive control (Avandia)"},
      {"measurement": "PPAR Activation as % of positive control (Avandia)", "setting": "Experiment 3, 0.1 microM", "result": "6 +/− 2 % of positive control (Avandia)"},
      {"measurement": "PPAR Activation as % of positive control (Avandia)", "setting": "Experiment 3, 1 microM", "result": "34 +/− 2 % of positive control (Avandia)"},
      {"measurement": "PPAR Activation as % of positive control (Avandia)", "setting": "Experiment 3, 10 microM", "result": "58 +/− 12 % of positive control (Avandia)"}
    ]},
    {"smiles": "CCCCC/C=C\\CC1CC1/C=C/C(O)C/C=C\\CCCC(=O)O", "note": "(stereo not shown) [PBT-01, 8-hydroxy-11,12-cyclopropyl-eicosa-5Z,9E,14Z-trienoic acid, reference compound]", "values": [
      {"measurement": "PPAR gamma transactivation, result in words", "result": "active"},
      {"measurement": "PPAR Activation as % of positive control (Avandia)", "setting": "10 microM racemate, Table 3", "result": "16 +/− 4 % of positive control (Avandia)"}
    ]},
    {"smiles": "CCCCC/C=C\\CC1CC1/C=C/C(O)C/C=C\\CCCC(=O)OC", "note": "(stereo not shown) [PBT-2, 8-hydroxy-11,12-cyclopropyl-eicosa-5Z,9E,14Z-trienoic acid methyl ester, reference compound]", "values": [
      {"measurement": "PPAR Activation as % of positive control (Avandia)", "setting": "10 microM racemate, Table 3", "result": "27 +/− 5 % of positive control (Avandia)"}
    ]},
    {"smiles": "CCCCC/C=C\\CC1CC1/C=C/C(O)C/C=C\\CCCC(=O)O", "note": "(stereo not shown) [PBT-02, 8-hydroxy-11,12-cyclopropyl-eicosa-5Z,9E,14Z-trienoic acid, reference compound]", "values": [
      {"measurement": "PPAR gamma transactivation, result in words", "result": "active"},
      {"measurement": "PPAR Activation as % of positive control (Avandia)", "setting": "10 microM racemate, Table 3", "result": "17 +/− 2 % of positive control (Avandia)"}
    ]},
    {"smiles": "CCCCC/C=C\\CC1CC1C(O)/C=C\\C/C=C\\CCCC(=O)O", "note": "(stereo not shown) [PBT-03, 10-hydroxy-11,12-cyclopropyl-eicosa-5Z,8Z,14Z-trienoic acid, reference compound]", "values": [
      {"measurement": "PPAR gamma transactivation, result in words", "result": "active"},
      {"measurement": "PPAR Activation as % of positive control (Avandia)", "setting": "10 microM racemate, Table 3", "result": "14 +/− 4 % of positive control (Avandia)"}
    ]}
  ]
}
